Like-named read-outs stand apart in the source and are kept apart here.
Experiments:
PAD4 [1] = biological target: T1, PAD4 (Homo sapiens (Human), UniProt Q9UM07); experiment: Inhibition of PAD activity (Example 53), PAD4; conditions: for PAD4 Ki ± std error / Ki: Table 5; for Ki: read-out: PAD4 Ki ± std error; for remaining activity at 100 µM / remaining activity at 1000 µM: read-out: Remaining activity of PAD4
Procedure: (§1) Materials: PAD1, PAD2, PAD3 and PAD4 were purchased from commercial sources. Assay buffer: 50 mM Tris pH 7.5, 100 mM NaCl, 10 mM CaCl2, 5 mM DTT.
(§2) The inhibitor (12.5 μL of stock) was mixed with appropriate amount of substrate (BAEE) stock solution and preincubated at 37° C. for a period in the range of 0-60 min. The reaction was initiated by the addition of the enzyme. The reaction samples were incubated for a period in the range of 0-60 min. […] Samples were cooled on ice, vortexed and centrifuged. 200 μL aliquots were transferred to the 96-well plate and the absorbance was measured at 530 nm and the remaining activity was computed. The remaining activity data were plotted versus inhibitor concentration and fitted to the dose-response equation to calculate IC50.

PAD1 [2] = biological target: T2, PAD1 (Homo sapiens (Human), UniProt Q9ULC6); experiment: Inhibition of PAD activity (Example 53), PAD1; conditions: Table 5; for Ki: read-out: PAD1 Ki ± std error
Procedure: as §1, §2

PAD2 = PAD2 (Mus musculus (Mouse), UniProt Q08642); experiment: Inhibition of PAD activity (Example 53), PAD2; conditions: for remaining activity at 100 µM / remaining activity at 1000 µM: read-out: Remaining activity of PAD2
Procedure: as §1, §2

mPAD2 = mPAD2 (Mus musculus (Mouse), UniProt Q08642); experiment: Enzyme inhibition kinetics (Example 54), mPAD2; format: biochemical; conditions: for Ki: Table 6; for Selectivity ratio of inhibition, mPAD2 (PAD4): mPAD2 versus PAD4
PAD1 [3] = biological target: T2, PAD1; experiment: Enzyme inhibition kinetics (Example 54), hPAD1; format: biochemical; conditions: for Ki: Table 6
CHO cells = experiment: CHO cell toxicity assay; format: cell-based; conditions: Cricetulus griseus
PAD4 [4] = biological target: T1, PAD4; experiment: Enzyme inhibition kinetics (Example 54), hPAD4; format: biochemical; conditions: for Ki: Table 6
PAD enzymes = conditions: most potent non-peptidic compounds from the literature; cited from earlier work
PADs = experiment: Enzymatic assays with hPAD1, mPAD2 and hPAD4, stated for PADs overall; format: biochemical; conditions: summary of Table 6; read-out: Ki, activity towards PADs
animal models of MS = conditions: cited from earlier work
[5] = read-out: PAD2 Ki ± std error, Table 5
[6] = read-out: PAD2 inhibition constant Ki ± Std Error, Table 1

T2 sequence (Q9ULC6 whole entry): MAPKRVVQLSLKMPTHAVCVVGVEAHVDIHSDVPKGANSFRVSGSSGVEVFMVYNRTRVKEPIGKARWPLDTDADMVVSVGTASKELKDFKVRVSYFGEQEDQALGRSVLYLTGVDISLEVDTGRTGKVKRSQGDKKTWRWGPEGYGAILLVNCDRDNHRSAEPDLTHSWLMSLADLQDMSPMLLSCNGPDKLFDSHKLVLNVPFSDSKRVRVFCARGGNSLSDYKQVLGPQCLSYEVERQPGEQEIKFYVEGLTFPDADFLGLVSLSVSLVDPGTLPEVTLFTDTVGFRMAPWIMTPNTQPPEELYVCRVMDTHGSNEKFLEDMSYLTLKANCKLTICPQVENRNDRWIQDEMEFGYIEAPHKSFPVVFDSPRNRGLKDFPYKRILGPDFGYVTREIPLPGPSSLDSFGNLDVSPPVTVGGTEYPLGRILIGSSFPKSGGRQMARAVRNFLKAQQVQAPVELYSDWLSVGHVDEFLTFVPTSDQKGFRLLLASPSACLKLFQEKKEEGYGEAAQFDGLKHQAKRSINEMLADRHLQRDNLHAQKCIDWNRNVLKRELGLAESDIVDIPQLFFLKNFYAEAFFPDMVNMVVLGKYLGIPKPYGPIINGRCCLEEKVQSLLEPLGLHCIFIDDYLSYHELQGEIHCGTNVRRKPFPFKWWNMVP
mPAD2, sequence (Q08642 whole entry): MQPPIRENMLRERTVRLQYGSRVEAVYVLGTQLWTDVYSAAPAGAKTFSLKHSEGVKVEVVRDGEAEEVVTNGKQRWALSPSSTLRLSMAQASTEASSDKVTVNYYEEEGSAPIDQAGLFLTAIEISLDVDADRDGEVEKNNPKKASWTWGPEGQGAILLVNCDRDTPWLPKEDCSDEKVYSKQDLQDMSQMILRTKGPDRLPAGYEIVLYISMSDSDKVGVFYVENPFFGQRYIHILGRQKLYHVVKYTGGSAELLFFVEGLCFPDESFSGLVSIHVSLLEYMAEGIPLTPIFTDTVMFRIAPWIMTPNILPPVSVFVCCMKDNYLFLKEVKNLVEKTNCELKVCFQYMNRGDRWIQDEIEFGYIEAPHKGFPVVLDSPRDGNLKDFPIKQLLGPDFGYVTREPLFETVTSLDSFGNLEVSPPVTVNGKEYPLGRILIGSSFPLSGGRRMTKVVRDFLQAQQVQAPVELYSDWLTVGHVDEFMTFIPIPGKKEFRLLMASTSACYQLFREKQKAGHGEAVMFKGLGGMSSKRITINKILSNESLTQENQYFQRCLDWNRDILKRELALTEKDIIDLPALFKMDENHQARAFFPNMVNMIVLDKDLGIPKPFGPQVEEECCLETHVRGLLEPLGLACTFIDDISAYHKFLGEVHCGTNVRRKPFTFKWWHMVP
PAD2, sequence (Q08642 whole entry): as above
T1 sequence (Q9UM07 whole entry): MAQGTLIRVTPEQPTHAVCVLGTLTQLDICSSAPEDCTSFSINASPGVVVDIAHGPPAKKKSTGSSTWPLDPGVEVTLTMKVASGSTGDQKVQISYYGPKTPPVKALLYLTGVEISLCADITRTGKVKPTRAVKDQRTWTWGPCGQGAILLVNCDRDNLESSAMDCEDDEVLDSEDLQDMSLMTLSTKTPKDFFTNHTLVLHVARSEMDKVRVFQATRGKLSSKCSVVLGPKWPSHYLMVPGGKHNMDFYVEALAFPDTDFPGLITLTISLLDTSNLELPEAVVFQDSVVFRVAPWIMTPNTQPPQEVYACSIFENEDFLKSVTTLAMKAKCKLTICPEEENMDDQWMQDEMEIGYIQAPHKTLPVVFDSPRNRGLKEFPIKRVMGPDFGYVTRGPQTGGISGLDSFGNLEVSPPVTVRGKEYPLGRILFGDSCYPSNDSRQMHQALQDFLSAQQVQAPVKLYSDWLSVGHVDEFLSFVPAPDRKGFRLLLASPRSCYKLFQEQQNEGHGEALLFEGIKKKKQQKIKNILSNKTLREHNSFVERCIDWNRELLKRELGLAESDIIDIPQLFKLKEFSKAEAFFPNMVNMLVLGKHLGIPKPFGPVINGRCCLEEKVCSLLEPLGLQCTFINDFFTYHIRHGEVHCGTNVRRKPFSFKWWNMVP

Structure (SMILES): CC(C)NC(=O)[C@H](CN1CCN(C)CC1)NC(=O)N1CCCCC1 [KP-290]
- PAD4 Ki ± std error (PAD4 [1]): No inhibition up to 10 mM

Structure (SMILES): CC(C)(C)OC(=O)N[C@H](CCN=[N+]=[N-])C(=O)NCc1ccccc1 [KP-310]
- Ki (PAD1 [2]): 3430 ± 1940 µM
- Ki (PAD2; [5]): 1430 ± 186 µM
- Ki (PAD4 [1]): 1450 ± 187 µM

Structure (SMILES): COC(=O)[C@H](CN1CCNCC1)NC(=O)C1CCCCC1 [KP-224]
- Ki (PAD2; [6]): 21.3 ± 3.4 µM

Structure (SMILES): O=C(N[C@@H](Cn1ccnc1)C(=O)OCc1ccccc1)c1ccco1 [KP-300]
- PAD1 Ki ± std error (PAD1 [2]): No inhibition up to 10 mM
- Ki (PAD2; [5]): 739 ± 339 µM
- Ki (PAD4 [1]): 1070 ± 427 µM

Structure (SMILES): CC(C)NC(=O)[C@H](CCn1ccnc1)NC(=O)c1ccco1 [KP-286, (S)—N-(4-(1[H]-imidazol-1-yl)-1-(isopropylamino)-1-oxobutan-2-yl) furan-2-carboxamide]
- Ki (PAD1 [2]): 2500 ± 1780 µM
- Ki (PAD2; [5]): 554 ± 93 µM
- Ki (mPAD2): 554 ± 93 µM
- Ki (PAD1 [3]): 964 ± 689 µM
- IC50 (CHO cells): 546 ± 136 µM

Structure (SMILES): CC(C)NC(=O)[C@H](CN1CCN(C)CC1)NC(=O)N1CCOCC1 [KP-291]
- PAD1 Ki ± std error (PAD1 [2]): No inhibition up to 10 mM
- PAD2 Ki ± std error (PAD2; Table 5): No inhibition up to 10 mM
- PAD4 Ki ± std error (PAD4 [1]): No inhibition up to 10 mM

Structure (SMILES): CC(C)NC(=O)[C@H](CCN1CCN(C)CC1)NC(=O)c1ccco1 [KP-289, (S)—N-(1-(Isopropylamino)-4-(4-methylpiperazin-1-yl)-1-oxobutan-2-yl)furan-2-carboxamide]
- Ki (PAD2; [5]): 1790 ± 2420 µM
- Ki (mPAD2): 1840 ± 2420 µM
- Selectivity ratio of inhibition, mPAD2 (PAD4) (mPAD2): 0.3 (PAD4)
- Ki (PAD4 [1]): 488 ± 47 µM
- IC50 (CHO cells): > 2000 µM
- Ki (PAD4 [4]): 488 ± 47 µM
- Selectivity ratio of inhibition, hPAD4 (PAD2) (PAD4 [4]; hPAD4 versus PAD2): 3.7 (PAD2)

Structure (SMILES): CN(C)[C@@H]1C(O)=C(C(N)=O)C(=O)[C@@]2(O)C(O)=C3C(=O)c4c(O)ccc(Cl)c4[C@@](C)(O)[C@H]3C[C@@H]12 [chlortetracycline]
- IC50 (PAD enzymes): 100 µM

Structure (SMILES): O=C(N[C@@H](CCO)C(=O)Nc1ccccc1)OCc1ccccc1 [KP-231]
- remaining activity at 100 µM (PAD2): 44.4 ± 0.5%
- remaining activity at 1000 µM (PAD2): 45.5 ± 1.1%
- remaining activity at 100 µM (PAD4 [1]): 100 ± 4.6%
- remaining activity at 1000 µM (PAD4 [1]): 82.3 ± 3.7%

Structure (SMILES): CC(C)NC(=O)[C@H](Cn1ccnc1)NC(=O)N1CCOCC1 [KP-292]
- Ki (PAD4 [1]): ~14900 µM

Structure (SMILES): O=C(N[C@@H](CN1CCNCC1)C(=O)NCc1ccccc1)c1ccco1 [KP-227, (S)—N-(1-(Benzylamino)-1-oxo-3-(piperazin-1-yl)propan-2-yl)furan-2-carboxamide]
- remaining activity at 100 µM (PAD2): 63.7 ± 0.6%
- remaining activity at 1000 µM (PAD2): 68.2 ± 2.3%
- remaining activity at 100 µM (PAD4 [1]): 100 ± 1.3%
- remaining activity at 1000 µM (PAD4 [1]): 82.2 ± 2.4%

Structure (SMILES): O=C(NCc1ccccc1)[C@H](Cn1ccnc1)NC(=O)N1CCCCC1 [KP-304]
- Ki (PAD2; [5]): 5300 ± 7830 µM
- PAD4 Ki ± std error (PAD4 [1]): No inhibition up to 10 mM

Structure (SMILES): CC(C)(C)OC(=O)N[C@@H](CN=[N+]=[N-])C(=O)NCc1ccccc1 [KP-306]
- PAD1 Ki ± std error (PAD1 [2]): No inhibition up to 10 mM
- PAD2 Ki ± std error (PAD2; Table 5): No inhibition up to 10 mM
- PAD4 Ki ± std error (PAD4 [1]): No inhibition up to 10 mM

Structure (SMILES): O=C(N[C@@H](CCn1ccnc1)C(=O)NCc1ccccc1)c1ccco1 [KP-301, (S)—N-(1-(Benzylamino)-4-(1 [H]-imidazol-1-yl)-1-oxobutan-2-yl) furan-2-carboxamide]
- PAD1 Ki ± std error (PAD1 [2]): No inhibition up to 10 mM
- PAD2 Ki ± std error (PAD2; Table 5): No inhibition up to 10 mM
- Ki (mPAD2): > 10000 µM
- Ki (PAD1 [3]): > 10000 µM
- PAD4 Ki ± std error (PAD4 [1]): No inhibition up to 10 mM
- Ki (PADs): 200 to 500 µM
- Ki (PAD4 [4]): > 10000 µM

Structure (SMILES): O=C(N[C@@H](CCn1ccnn1)C(=O)NCc1ccccc1)c1ccc(F)cc1 [KP-316, (S)—N-(1-(Benzylamino)-1-oxo-4-(1[H]-1,2,3-triazol-1-yl)butan-2-yl)-4-fluorobenzamide]
- Ki (PAD1 [2]): 77700 ± 91500 µM
- PAD2 Ki ± std error (PAD2; Table 5): Some inhibition but IC50 can't be calculated - no Ki
- Ki (PAD1 [3]): > 10000 µM
- PAD4 Ki ± std error (PAD4 [1]): Some inhibition but IC50 can't be calculated - no Ki

Structure (SMILES): O=C(N[C@@H](CCN1CCNCC1)C(=O)NCc1ccccc1)c1ccco1 [KP-228, (S)—N-(1-(Benzylamino)-1-oxo-4-(piperazin-1-yl)butan-2-yl)furan-2-carboxamide]
- remaining activity at 100 µM (PAD2): 58.6 ± 3.6%
- remaining activity at 1000 µM (PAD2): 31.8 ± 4.9%
- remaining activity at 100 µM (PAD4 [1]): 96.4 ± 10.4%
- remaining activity at 1000 µM (PAD4 [1]): 82.1 ± 7.2%

Structure (SMILES): Cn1cccc1C(=O)N[C@@H](Cn1ccnc1)C(=O)NCc1ccccc1 [KP-305]
- Ki (PAD1 [2]): 147 ± 52 µM
- Ki (PAD2; [5]): 58 ± 5 µM

Structure (SMILES): N=C(N)CCl [Compound 2CA, 2-chloroacetamidine]
- MS disease (animal models of MS; four animal models of MS): attenuated MS disease
- PAD activity in the brain (animal models of MS; four animal models of MS): decreased PAD activity in the brain
- amount of citrullinated protein (animal models of MS; four animal models of MS): decreased the amount of citrullinated protein
- disease after therapy cessation at 6 months (animal models of MS; one murine model): fully progressive clinical disease re-emerged promptly
- disease with early and prolonged administration (animal models of MS; one murine model): essentially prevented the disease

Structure (SMILES): O=C(N[C@@H](CC(=O)N1CCNCC1)C(=O)Nc1ccccc1)c1ccco1 [KP-230]
- remaining activity at 100 µM (PAD2): 55.1 ± 0.5%
- remaining activity at 1000 µM (PAD2): 33.5 ± 0.4%
- remaining activity at 100 µM (PAD4 [1]): 96.9 ± 7.6%
- remaining activity at 1000 µM (PAD4 [1]): 82.4 ± 1.7%

Structure (SMILES): O=C(Nc1ccccc1)[C@H](CC(=O)N1CCNCC1)NC(=O)N1CCOCC1 [KP-229]
- remaining activity at 100 µM (PAD2): 54 ± 2.7%
- remaining activity at 1000 µM (PAD2): 63.3 ± 2%
- remaining activity at 100 µM (PAD4 [1]): 100 ± 5.5%
- remaining activity at 1000 µM (PAD4 [1]): 100 ± 2.6%

Structure (SMILES): COC(=O)[C@H](CN1CCNCC1)NC(=O)c1ccco1 [KP-225, (S)-Methyl 2-(furan-2-carboxamido)-3-(piperazin-1-yl)propanoate]
- remaining activity at 100 µM (PAD2): 86.6 ± 3%
- remaining activity at 1000 µM (PAD2): 70.8 ± 1.7%
- remaining activity at 100 µM (PAD4 [1]): 78.7 ± 9.5%
- remaining activity at 1000 µM (PAD4 [1]): 62.2 ± 2.7%

Structure (SMILES): COC(=O)[C@H](Cn1ccnc1)NC(=O)c1ccco1 [KP-298]
- Ki (PAD1 [2]): 785 ± 384 µM
- Ki (PAD2; [5]): 662 ± 210 µM
- Ki (PAD4 [1]): 1240 ± 1390 µM

Structure (SMILES): CC(C)NC(=O)[C@H](CCN1CCN(C)CC1)NC(=O)N1CCOCC1 [KP-287, (S)—N-(1-(Isopropylamino)-4-(4-methylpiperazin-1-yl)-1-oxobutan-2-yl)morpholine-4-carboxamide]
- PAD1 Ki ± std error (PAD1 [2]): Some inhibition but IC50 not calculated - no Ki
- Ki (PAD2; [5]): 600 ± 1330 µM
- Ki (mPAD2): > 10000 µM
- Ki (PAD1 [3]): > 10000 µM
- PAD4 Ki ± std error (PAD4 [1]): No inhibition up to 10 mM
- IC50 (CHO cells): > 2000 µM
- Ki (PADs): 200 to 500 µM
- Ki (PAD4 [4]): > 10000 µM

Structure (SMILES): CC(C)(C)OC(=O)N[C@H](CCO)C(=O)NCc1ccccc1 [KP-311]
- PAD1 Ki ± std error (PAD1 [2]): No inhibition up to 10 mM
- PAD2 Ki ± std error (PAD2; Table 5): No inhibition up to 10 mM
- PAD4 Ki ± std error (PAD4 [1]): No inhibition up to 10 mM

Structure (SMILES): CC(C)NC(=O)[C@H](CCN1CCN(C)CC1)NC(=O)C1CCCCC1 [KP-295, (S)—N-(1-(Isopropylamino)-4-(4-methylpiperazin-1-yl)-1-oxobutan-2yl) cyclohexanecarboxamide]
- PAD2 Ki ± std error (PAD2; Table 5): No inhibition up to 10 mM
- Ki (mPAD2): > 10000 µM
- PAD4 Ki ± std error (PAD4 [1]): No inhibition up to 10 mM
- Ki (PAD4 [4]): > 10000 µM

Structure (SMILES): CC(C)NC(=O)[C@H](CCn1cnc(CC#N)c1)NC(=O)c1ccco1 [KP-288, (S)—N-(4-(4-(Cyanomethyl)-1[H]-imidazol-1-yl)-1-(isopropylamino)-1-oxobutan-2-yl)furan-2-carboxamide]
- Ki (PAD1 [2]): 914 ± 59 µM
- Ki (PAD2; [5]): 176 ± 62 µM
- Ki (mPAD2): 1000 ± 876 µM
- Selectivity ratio of inhibition, mPAD2 (PAD1) (mPAD2; mPAD2 versus PAD1): 0.4
- Selectivity ratio of inhibition, mPAD2 (PAD4) (mPAD2): 0.6
- inhibitor efficacy towards hPAD1 in comparison to other isozymes (PAD1 [3]): at least 3 fold
- Ki (PAD1 [3]): 353 ± 23 µM
- Selectivity ratio of inhibition, hPAD1 (PAD2) (PAD1 [3]; hPAD1 versus PAD2, ratios greater than 2-fold suggest selectivity): 2.8
- Selectivity ratio of inhibition, hPAD1 (PAD4) (PAD1 [3]; hPAD1 versus PAD4): 1.6
- Ki (PAD4 [1]): 591 ± 77 µM
- IC50 (CHO cells): > 2000 µM
- Ki (PAD4 [4]): 591 ± 77 µM
- Selectivity ratio of inhibition, hPAD4 (PAD1) (PAD4 [4]; hPAD4 versus PAD1): 0.6

Structure (SMILES): COC(=O)[C@H](CCN1CCNCC1)NC(=O)c1ccco1 [KP-226, (S)-Methyl 2-(furan-2-carboxamido)-4-(piperazin-1-yl)butanoate]
- Ki (PAD2; [5]): 286 ± 27 µM
- Ki (PAD2; [6]): 19.7 ± 2 µM
